Experimental data reported in patent US9855226B2 (Relmada Therapeutics, Inc., priority 2012, dated 2018).

Columns and labels:
[1] = target: T1, N-methyl-D-aspartate (NMDA) receptor (Rattus norvegicus, UniProt P35439); settings: cited from earlier work
T1 construct: N-methyl-D-aspartate (NMDA) receptor in rat forebrain and spinal cord

[2] = system: patients with chronic pain; settings: average of eight patients
[3] = system: patients with chronic pain
[4] = system: relatively refractory population with major depression; settings: single dose; cited from earlier work
[5] = system: subjects with major depression; settings: single dose, 8 subjects; cited from earlier work
male Wistar rats = settings: single dose; cited from earlier work
[6] = day 12 of d-methadone 40 mg every 12 hours
[7] = 8 patients that completed and 1 removed, 40 mg PO q12 hr

SMILES: CCC(=O)C(C[C@H](C)N(C)C)(c1ccccc1)c1ccccc1 [d-methadone]
- NMDA receptor antagonism [1]: NMDA antagonists
- Anxiety, Baseline, average score ([2]; baseline (day 1)): 2.5
- Drowsiness, Baseline, average score ([2]; baseline (day 1)): 4.1
- Pain, Baseline, average score ([2]; baseline (day 1)): 4.1
- Tiredness, Baseline, average score ([2]; baseline (day 1)): 5.9
- Anxiety, Day 12, average score [2, 6]: 1.5
- Drowsiness, Day 12, average score [2, 6]: 2.9
- Pain, Day 12, average score [2, 6]: 4.1
- Tiredness, Day 12, average score [2, 6]: 3.6
- Tolerability ([3]; 40 mg PO Q 12 hours for 12 days, patients with chronic pain and multiple co morbidities): well tolerated
- Back pain: # of patients [3, 7]: 1
- Headache (first line): # of patients [3, 7]: 1
- Headache (second line): # of patients [3, 7]: 1
- Somnolence (Neurology): # of patients [3, 7]: 2
- Tremor (Neurology): # of patients [3, 7]: 1
- Back pain: Attribution ([3]; CTCAE v3.0): 3
- Back pain: Grade (1-5) ([3]; CTCAE v3.0): 1
- Headache (first line): Attribution ([3]; CTCAE v3.0): 3
- Headache (first line): Grade (1-5) ([3]; CTCAE v3.0): 1
- Headache (second line): Attribution ([3]; CTCAE v3.0): 4
- Headache (second line): Grade (1-5) ([3]; CTCAE v3.0): 1
- Somnolence (Neurology): Attribution ([3]; CTCAE v3.0): 3
- Somnolence (Neurology): Grade (1-5) ([3]; CTCAE v3.0): 2
- Tremor (Neurology): Attribution ([3]; CTCAE v3.0): 3
- Tremor (Neurology): Grade (1-5) ([3]; CTCAE v3.0): 1
- Patients' perception of analgesia ([3]; very sick patients with severe cancer pain): recognized it as an effective analgesic

SMILES: CNC1(c2ccccc2Cl)CCCCC1=O (stereo not shown) [ketamine]
- Duration of antidepressant response (relatively sustained) [4]: 1 week
- Time to antidepressant response (rapid) [4]: 110 min
- Antidepressant effect [5]: rapid and short-lived antidepressant effect
- Duration of interference with the induction of behavioral despair (male Wistar rats): up to 10 days

SMILES: CCC(=O)C(C[C@@H](C)N(C)C)(c1ccccc1)c1ccccc1 [l-methadone, reference compound]
- NMDA receptor antagonism [1]: NMDA antagonists
